Reference: patent US20220127232A1, “HISTONE ACETYLTRANSFERASE MODULATORS AND COMPOSITIONS AND USES THEREOF” (The Trustees of Columbia University in the City of New York, priority 2019, published 2022)
Structures can show the parent of a compound that is named as a salt. Where two headings read alike, the source gives them in different places.

Biological target: p300 (Homo sapiens, UniProt Q09472)
Test: Histone Acetyltransferase (HAT) in vitro acetylation assay, western blot of H3K27ac / H3K18ac
Type: biochemical
Conditions: for H3-Lys 27 EC50 / H3-Lys 18 EC50 / EC50: EC50 for activators; for H3-Lys 27 IC50 / H3-Lys 18 IC50: IC50 for inhibitors
Experimental: The aim of the in vitro acetylation assay is to measure the enzymatic activity of the various compounds towards p300.
First, the drug is prepared:
Second, dilute p300 in AM1 buffer to a concentration of 40 ng/μL (final concentration in the reaction 20 ng/μL). This is accomplished by diluting 1 μL of p300 (at 0.4 μg/μL) into […] of AM1 buffer.
Third, prepare the Master Mix. Prepare the Master Mix in low protein binding tubes (ThermoFisher Cat. No. 90410), 20 μL system.
Incubate reactions at 30° C. for 30 minutes.
Incubate reactions at 30° C. for 1 hour.
Fourth, perform the western blot assay. • Add 6.7 μL of Laemmli Sample Buffer 4× (Bio-Rad Laboratories Cat. No. 161-0737) for each reaction and boil samples at 95° C. for 5 min. • Charge 10 μL for each sample in 2 Tris Glycine 4-15% gels (Bio-Rad Laboratories Cat. No. 456-1086). Running Buffer: Tris-Glycine 1× (pour in the cell up to the writing “2 gels”). • Run at 90 V for 1 hour (until the gel front reaches the green line of cell). • Semi-dry transfer with Trans-Blot® Turbo™ Blotting System from Bio-Rad Laboratories (Trans-Blot® Turbo™ RTA midi PVDF transfer kit Cat. No1704275). • Activate PVDF membrane in methanol for 5 minutes and then wet in Trans-Blot® Turbo™ transfer buffer. • Wet stacks in transfer buffer. • Transfer at 23 V 1.3 A for 7 minutes. • Blocking buffer: 5% Non-Fat milk in TBST (tween 0.1%) 1 hour at room temperature. • Cut the membranes to get Ac-His 3 at 17 kDa and p300 at 300 kDa. • Incubate with primary antibodies overnight at 4° C. • The day after, make 3 washes in TBST (Tween 0.1%) of 10 minutes. • Incubate with secondary antibody at room temperature for 1 hour. • Make 3 washes in TBST (Tween 0.1%) of 5 minutes. • Incubate membranes with ECL (SuperSignal West Dura Extended Duration Substrate from ThermoFisher) for 5 minutes at room temperature. • Acquire the image with ChemiDoc Odyssey Fc 2 minutes.
To detect total H3 (loading control), strip the membranes with Restore™ Western Blot Stripping Buffer according to the manufacturer protocol.
Various compounds were tested for enzymatic activity with respect to Lys 18 and Lys 27. EC50 is indicated for Activators and IC50 for inhibitors respectively.
FIGS. 1A to 25B are graphs showing the lysine residue acetylation as a function of concentration for the compounds set forth in Table 3. The shaded area corresponds to the average values of lysine residue acetylation (continuous line) and their standard error range measured in the absence of compound and DMSO. The number of replicates is represented by “n”.

[1] = compound in DMSO, read-out: H3-Lys 18 EC50
[2] = compound in DMSO, read-out: H3-Lys 27 EC50

p300, sequence (Q09472 whole entry, species assumed): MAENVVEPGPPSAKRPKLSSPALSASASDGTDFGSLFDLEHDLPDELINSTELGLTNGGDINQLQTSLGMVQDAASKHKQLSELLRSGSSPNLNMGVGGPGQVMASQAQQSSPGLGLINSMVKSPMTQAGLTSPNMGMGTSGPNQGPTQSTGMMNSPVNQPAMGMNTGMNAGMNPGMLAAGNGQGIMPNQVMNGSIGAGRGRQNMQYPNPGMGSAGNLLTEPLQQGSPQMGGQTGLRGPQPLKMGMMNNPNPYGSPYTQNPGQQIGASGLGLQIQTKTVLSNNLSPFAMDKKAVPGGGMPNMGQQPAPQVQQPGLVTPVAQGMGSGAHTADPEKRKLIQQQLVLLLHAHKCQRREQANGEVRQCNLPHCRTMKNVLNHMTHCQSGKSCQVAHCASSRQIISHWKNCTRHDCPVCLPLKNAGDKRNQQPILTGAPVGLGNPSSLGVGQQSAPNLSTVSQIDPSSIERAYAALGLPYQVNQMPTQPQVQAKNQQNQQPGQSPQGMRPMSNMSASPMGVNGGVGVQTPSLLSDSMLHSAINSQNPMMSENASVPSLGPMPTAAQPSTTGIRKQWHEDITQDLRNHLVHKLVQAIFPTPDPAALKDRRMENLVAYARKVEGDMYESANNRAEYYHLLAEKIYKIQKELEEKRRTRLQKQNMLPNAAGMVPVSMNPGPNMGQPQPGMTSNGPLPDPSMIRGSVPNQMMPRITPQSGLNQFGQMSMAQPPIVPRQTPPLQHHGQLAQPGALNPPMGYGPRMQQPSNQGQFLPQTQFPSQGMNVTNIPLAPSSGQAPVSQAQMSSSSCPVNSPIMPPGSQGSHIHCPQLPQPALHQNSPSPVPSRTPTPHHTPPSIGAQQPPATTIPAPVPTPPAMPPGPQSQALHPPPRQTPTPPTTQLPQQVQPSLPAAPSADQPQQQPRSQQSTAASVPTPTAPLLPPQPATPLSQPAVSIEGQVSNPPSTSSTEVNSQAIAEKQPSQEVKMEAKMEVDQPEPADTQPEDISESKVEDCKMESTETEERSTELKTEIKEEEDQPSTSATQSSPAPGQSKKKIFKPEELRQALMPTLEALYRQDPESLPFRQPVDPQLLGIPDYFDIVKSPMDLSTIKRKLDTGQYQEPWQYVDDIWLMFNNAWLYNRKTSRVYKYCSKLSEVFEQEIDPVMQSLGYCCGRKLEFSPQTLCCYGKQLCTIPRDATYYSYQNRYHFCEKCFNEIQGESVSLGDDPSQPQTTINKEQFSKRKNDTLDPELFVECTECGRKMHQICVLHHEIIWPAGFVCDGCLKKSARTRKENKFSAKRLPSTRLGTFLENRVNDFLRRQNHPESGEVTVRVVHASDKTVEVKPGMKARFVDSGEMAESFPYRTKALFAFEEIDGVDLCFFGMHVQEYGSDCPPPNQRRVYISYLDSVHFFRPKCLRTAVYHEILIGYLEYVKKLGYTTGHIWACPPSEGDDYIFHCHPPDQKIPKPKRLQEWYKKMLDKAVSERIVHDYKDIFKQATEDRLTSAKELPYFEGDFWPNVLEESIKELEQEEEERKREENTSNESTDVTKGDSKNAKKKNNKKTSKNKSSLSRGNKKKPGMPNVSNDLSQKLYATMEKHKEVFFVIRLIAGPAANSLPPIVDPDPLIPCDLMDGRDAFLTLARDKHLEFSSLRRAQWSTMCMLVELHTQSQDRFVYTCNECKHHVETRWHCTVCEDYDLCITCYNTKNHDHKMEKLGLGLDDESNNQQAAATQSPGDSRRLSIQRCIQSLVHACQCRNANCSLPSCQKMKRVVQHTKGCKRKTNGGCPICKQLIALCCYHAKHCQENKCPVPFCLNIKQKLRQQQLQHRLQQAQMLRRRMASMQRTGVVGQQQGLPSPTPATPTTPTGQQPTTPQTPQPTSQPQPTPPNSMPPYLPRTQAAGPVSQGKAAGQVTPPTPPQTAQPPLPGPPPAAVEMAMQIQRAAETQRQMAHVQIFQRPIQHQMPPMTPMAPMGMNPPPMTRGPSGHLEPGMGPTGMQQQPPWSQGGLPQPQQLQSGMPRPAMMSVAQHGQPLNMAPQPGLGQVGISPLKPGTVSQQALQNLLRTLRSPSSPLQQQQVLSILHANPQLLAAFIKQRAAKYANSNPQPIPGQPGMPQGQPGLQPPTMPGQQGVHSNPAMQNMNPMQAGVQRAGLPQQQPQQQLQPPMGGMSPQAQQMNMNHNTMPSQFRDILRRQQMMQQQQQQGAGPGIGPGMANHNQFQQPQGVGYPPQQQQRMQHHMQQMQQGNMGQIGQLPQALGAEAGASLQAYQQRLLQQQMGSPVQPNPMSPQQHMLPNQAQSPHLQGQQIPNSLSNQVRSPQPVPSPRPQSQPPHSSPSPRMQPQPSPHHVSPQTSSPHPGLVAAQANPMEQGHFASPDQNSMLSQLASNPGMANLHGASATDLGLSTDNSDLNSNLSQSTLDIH

| SMILES | H3-Lys 27 EC50 (compound in DMSO) | H3-Lys 27 IC50 (compound in DMSO) | H3-Lys 18 EC50 (compound in DMSO) | H3-Lys 18 IC50 (compound in DMSO) | EC50 [1] [µM] | EC50 [2] [µM] | EC50 (compound in H2O, read-out: H3-Lys 18 EC50) [µM] | EC50 (compound in H2O, read-out: H3-Lys 27 EC50) [µM] |
| --- | --- | --- | --- | --- | --- | --- | --- | --- |
| CC(C)Oc1cccc(OCCN(C)C)c1C(=O)Nc1ccc(Cl)c(C(F)(F)F)c1 [RA010143 HCl] | NO ACTIVITY | NO ACTIVITY |  |  |  |  |  |  |
| CCOc1cccc(OCCO)c1C(=O)Nc1ccc(Cl)c(C(F)(F)F)c1 [RA010146] | NO ACTIVITY | NO ACTIVITY | NO ACTIVITY | NO ACTIVITY |  |  |  |  |
| CCOc1cccc(OCCOC)c1C(=O)Nc1ccc(Cl)c(C(F)(F)F)c1 [RA010155] | NO ACTIVITY | NO ACTIVITY |  |  | 0.129 |  |  |  |
| CCOc1cccc(O)c1C(=O)Nc1cccc(C(F)(F)F)c1 [RA010160] |  |  |  |  | 0.146 | 0.533 |  |  |
| CN(C)CCOc1cccc(F)c1C(=O)Nc1ccc(Cl)c(C(F)(F)F)c1 [RA010162] | NO ACTIVITY | NO ACTIVITY | NO ACTIVITY | NO ACTIVITY |  |  |  |  |
| CCOc1cccc(N(C)CCN(C)C)c1C(=O)Nc1ccc(Cl)c(C(F)(F)F)c1 [RA010163] | NO ACTIVITY | NO ACTIVITY | NO ACTIVITY | NO ACTIVITY |  |  |  |  |
| CCOc1cccc(OCCN(C)C)c1C(=O)Nc1cccc(C(F)(F)F)c1 [RA010168] | NO ACTIVITY | NO ACTIVITY |  |  |  |  |  |  |
| CCOc1cccc(OCC)c1C(=O)Nc1ccc(Cl)c(C(F)(F)F)c1 [RA010171] |  |  |  |  | 0.141 |  |  |  |
| COc1cccc(OCCN(C)C)c1C(=O)Nc1ccc(Cl)c(C(F)(F)F)c1 [RA010900 HCl] | NO ACTIVITY | NO ACTIVITY | NO ACTIVITY | NO ACTIVITY |  |  | 0.117 | 0.044 |
| CCOc1cccc(OCCN(C)C)c1-c1nc2cc(Cl)c(C(F)(F)F)cc2[nH]1 [RA013012] | NO ACTIVITY | NO ACTIVITY | NO ACTIVITY | NO ACTIVITY |  |  |  |  |
| CCOc1ccccc1C(=O)N(CCN(C)C)c1ccc(Cl)c(C(F)(F)F)c1 [RA013886] | NO ACTIVITY | NO ACTIVITY | NO ACTIVITY | NO ACTIVITY |  |  |  |  |
| CCOc1cccc(OCCNC)c1C(=O)Nc1ccc(Cl)c(C(F)(F)F)c1 [RA013894] | NO ACTIVITY | NO ACTIVITY | NO ACTIVITY | NO ACTIVITY |  |  |  |  |
| CN(C)CCOc1cccc(O)c1C(=O)Nc1ccc(Cl)c(C(F)(F)F)c1 [RA013905] | NO ACTIVITY | NO ACTIVITY | NO ACTIVITY | NO ACTIVITY |  |  |  |  |
| CCOc1cccc(OCCN(C)C)c1C(=O)Nc1ccc(Cl)cn1 [RA013917] |  |  | NO ACTIVITY |  |  | 0.0159 |  |  |
| CCOc1cccc(OCCN(C)C)c1NC(=O)c1ccc(Cl)c(C(F)(F)F)c1 [RA013919] | NO ACTIVITY | NO ACTIVITY |  |  |  |  |  |  |
| CCOc1cccc(OCCN(C)C)c1C(=O)Nc1cccc(C(F)(F)F)c1 [RA013928] |  |  | NO ACTIVITY | NO ACTIVITY |  |  |  |  |
| CCCOc1cccc(O)c1C(=O)Nc1ccc(Cl)c(C(F)(F)F)c1 [RA013931] | NO ACTIVITY | NO ACTIVITY | NO ACTIVITY | NO ACTIVITY |  |  |  |  |
| CCCOc1cccc(OCCN(C)C)c1C(=O)Nc1ccc(Cl)c(C(F)(F)F)c1 [RA013938] | NO ACTIVITY | NO ACTIVITY | NO ACTIVITY | NO ACTIVITY |  |  |  |  |
